{"source": "patent US7605131B2", "about": "“EML4-ALK fusion gene” (Astellas Pharma Inc., priority 2007, dated 2009)", "key": {"[1]": {"biological_target": "T1, EML4-ALK fusion polypeptide v3 (Homo sapiens, UniProt Q9UM73, D1529E/I1461V/K1491R)", "T1 sequence (Q9UM73 with tags, fused parts or gaps I1461V/K1491R/D1529E)": "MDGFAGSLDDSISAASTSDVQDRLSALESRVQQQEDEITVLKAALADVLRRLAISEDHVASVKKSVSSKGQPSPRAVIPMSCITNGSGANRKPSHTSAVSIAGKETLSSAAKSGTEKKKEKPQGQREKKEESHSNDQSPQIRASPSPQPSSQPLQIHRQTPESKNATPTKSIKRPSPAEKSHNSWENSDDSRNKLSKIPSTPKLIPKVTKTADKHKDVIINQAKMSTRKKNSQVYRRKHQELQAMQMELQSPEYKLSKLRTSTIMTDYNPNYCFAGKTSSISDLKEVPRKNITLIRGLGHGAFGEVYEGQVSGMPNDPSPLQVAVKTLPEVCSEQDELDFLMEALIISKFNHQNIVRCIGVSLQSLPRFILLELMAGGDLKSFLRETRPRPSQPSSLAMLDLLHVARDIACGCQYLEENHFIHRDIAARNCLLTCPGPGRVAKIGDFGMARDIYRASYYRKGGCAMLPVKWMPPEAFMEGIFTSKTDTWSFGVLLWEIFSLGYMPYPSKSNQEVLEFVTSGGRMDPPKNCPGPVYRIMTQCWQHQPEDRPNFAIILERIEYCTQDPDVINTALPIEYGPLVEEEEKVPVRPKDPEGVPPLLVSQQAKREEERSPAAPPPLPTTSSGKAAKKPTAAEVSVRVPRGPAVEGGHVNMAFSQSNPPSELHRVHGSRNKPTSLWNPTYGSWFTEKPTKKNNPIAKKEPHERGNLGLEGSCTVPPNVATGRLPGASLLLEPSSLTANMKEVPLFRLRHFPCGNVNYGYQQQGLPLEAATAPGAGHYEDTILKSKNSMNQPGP", "assay": "Intracellular autophosphorylation of EML4-ALK fusion polypeptide v3 in v3 expressing 3T3 cells", "format": "cell-based", "conditions": "4 hours", "from_the_text": "The EML4-ALK fusion polypeptide v3 expression vector (designated as EML4-ALKv3/pMXS) was constructed by subcloning the insert of the EML4-ALKv3/pT7Blue-2 in pMXS plasmid (JBC 275, 24945-24952, 2000). Also, using the EML4-ALKv3/pT7Blue-2, an expression vector (designated as FLAG-EML4-ALKv3/pMX-iresCD8) which expresses both EML4-ALK fusion polypeptide v3 having the FLAG tag at the N-terminus and CD8 was constructed by subcloning the insert in pMX-iresCD8 plasmid (JBC 276, 39012-39020, 2001). The 3T3 cells transfected with the EML4-ALKv3/pMXS described above were inoculated subcutaneously to nude mice at 5×10^6 cells/mouse and observed after 20 days. […] Hereinafter, the 3T3 cells in which EML4-ALK fusion polypeptide v3 is expressed are designated as the v3 expressing 3T3 cells."}, "v3 expressing 3T3 cells": {"system": "v3 expressing 3T3 cells", "assay": "Anchorage independent growth of v3 expressing 3T3 cells (spheroid plate, CellTiter-Glo)", "format": "cell-based", "description": "Measurement for anchorage independent cell growth (colony method, etc) has been known to be a system for investigating an antitumor effect (pharmacologic effect) of compounds (Clinical Oncology, second edition, Cancer and Chemotherapy Publishers Inc.). In place of the colony method, there is a following method using spheroid plates for measuring the growth of non-attached cells.\n(§1) The v3 expressing 3T3 cells (Example 2) were seeded to a 96 well spheroid plate (Sumilon Celltight Spheroid 96U, Sumitomo Bakelite Inc.) at 3000 cells per well in a medium (Invitrogen) containing 10% fetal bovine serum. […] At the same time, cells were counted before the addition of drugs (Day 0). Then, cells were cultured under 5% CO2, at 37° C. for 3 days, mixed with a reagent for measuring cell number (CellTiter-Glo™ Luminescent Cell Viability Assay; Promega Inc.) stirred for 20 minutes, and the measurements (day 3) were carried out using a luminometer (ML3000 microtiter plate luminometer; Dynatech Laboratories Inc.)."}, "NCI-H2228 cells": {"system": "NCI-H2228 cells", "assay": "Anchorage independent growth of NCI-H2228 cells (spheroid plate)", "format": "cell-based, human", "description": "as §1\nDMSO (control) or compound A-D was added to the NCI-H2228 cells at 10 μM or 30 nM and this investigation was performed by a similar manner described as in Example 5, except cells were cultured for 5 days after the addition of drugs."}, "NPM-ALK": {"biological_target": "T2, NPM-ALK (Homo sapiens, UniProt Q9UM73)", "T2 construct": "the other entry of the earlier key: NPM1 (P06748, Nucleophosmin)", "T2 sequence (Q9UM73 with tags, fused parts or gaps)": "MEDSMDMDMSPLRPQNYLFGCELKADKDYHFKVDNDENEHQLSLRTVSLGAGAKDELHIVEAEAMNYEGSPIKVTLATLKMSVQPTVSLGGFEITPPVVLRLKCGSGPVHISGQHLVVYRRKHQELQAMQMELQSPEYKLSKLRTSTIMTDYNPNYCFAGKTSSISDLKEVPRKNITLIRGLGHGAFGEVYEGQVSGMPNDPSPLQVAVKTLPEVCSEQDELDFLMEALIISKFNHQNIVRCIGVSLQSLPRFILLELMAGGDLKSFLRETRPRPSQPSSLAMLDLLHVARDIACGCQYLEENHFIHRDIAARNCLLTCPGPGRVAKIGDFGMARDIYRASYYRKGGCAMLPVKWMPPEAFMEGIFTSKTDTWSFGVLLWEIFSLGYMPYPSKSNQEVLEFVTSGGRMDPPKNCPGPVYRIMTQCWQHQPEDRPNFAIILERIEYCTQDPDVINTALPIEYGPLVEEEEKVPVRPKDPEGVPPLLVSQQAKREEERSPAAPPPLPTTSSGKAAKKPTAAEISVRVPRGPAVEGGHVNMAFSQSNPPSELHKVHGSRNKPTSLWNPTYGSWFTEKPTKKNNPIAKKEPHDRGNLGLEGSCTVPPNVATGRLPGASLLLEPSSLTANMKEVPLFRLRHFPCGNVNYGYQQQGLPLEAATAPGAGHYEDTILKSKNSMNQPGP", "conditions": "reported in Laboratory investigation 2005, Vol. 85, p. 1544-1554; cited from earlier work"}, "[2]": {"biological_target": "T1, EML4-ALK fusion polypeptide v3", "assay": "In vitro autophosphorylation of purified EML4-ALK fusion polypeptide v3 (immunoblot, anti-phosphorylated ALK antibody)", "format": "biochemical", "design": "expresses both EML4-ALK fusion polypeptide v3 having the FLAG tag at the N-terminus and CD8; made in house; host or cells: mouse BA/F3 cells infected with FLAG-EML4-ALKv3/pMX-iresCD8 retrovirus", "description": "(§2) A recombinant retrovirus was produced according to a method of previous report (BBRC 356, 723-726, 2007) using FLAG-EML4-ALKv3/pMX-iresCD8. Mouse lymphatic cell line BA/F3 cells were infected therewith. The EML4-ALK fusion polypeptide v3 expressing BA/F3 cells were cultured in RPM1640 medium containing 10% of fetal bovine serum. To prepare the EML4-ALK fusion polypeptide v3, about 2×10^9 cells were collected. After washing 3 times with PBS, cells were lysed in a lysis solution (50 mM Tris.HCl (pH7.4), 150 mM NaCl, 1% Triton X100, 5 mM EDTA, 5 mM EGTA, 1 mM NaVO4, 1 mM DTT and protease inhibitor cocktail complete). The EML4-ALK fusion polypeptide v3 present in the supernatant obtained after a centrifugation was purified using ANTI-FLAG M2 Affinity Gel (SIGMA-ALDRICH Inc) according to the method described in the product information document. For washing and elution, the washing solution (50 mM Tris.HCl (pH7.4), 250 mM NaCl, 0.05% Brij35, 1 mM EDTA, 1 mM EGTA, 1 mM NaVO4, 1 mM DTT, complete) and the elution solution (50 mM Tris.HCl (pH7.4), 150 mM NaCl, 0.05% Brij35, 1 mM DTT, 0.5 mg/mL FLAG peptide) were used, respectively. Immunoblotting using anti-ALK antibody and anti FLAG M2 antibody (SIGMA-ALDRICH Inc.) and silver staining were carried out for the eluate to detect the EML4-ALK fusion polypeptide v3.\n(§3) The EML4-ALK fusion polypeptide v3 purified as described above was diluted in a reaction solution (15 mM Tris HCl (pH7.4), 0.25 mM MgCl2, 0.01% Tween-20, 2 mM DTT), and then ATP was not added or ATP 20 μM was added. The respective mixtures were reacted at room temperature for 1 hour. After the reaction, the auto phosphorylated EML4-ALK fusion polypeptide v3 and the EML4-ALK fusion polypeptide v3 were detected by immunoblotting using anti-phosphorylated ALK antibody, which recognizes specifically the product phosphorylated at the 1604th tyrosine residue of ALK, and anti-ALK antibody, and quantitated by an image analysis system (VersaDoc Imaging System; Bio-Rad Inc.). […]"}, "[3]": {"biological_target": "T1, EML4-ALK fusion polypeptide v3", "assay": "In vitro phosphorylation of peptide substrate by purified EML4-ALK fusion polypeptide v3 (HTRF KinEASE-TK)", "format": "biochemical", "design": "expresses both EML4-ALK fusion polypeptide v3 having the FLAG tag at the N-terminus and CD8; made in house; host or cells: mouse BA/F3 cells infected with FLAG-EML4-ALKv3/pMX-iresCD8 retrovirus", "conditions": "TK substrate 1", "description": "as §2, §3"}, "NCI-H2228": {"system": "NCI-H2228", "assay": "Anti-tumor test against NCI-H2228 subcutaneous tumor in NOD/SCID mice", "format": "in vivo", "conditions": "10 mg/kg orally once a day for 14 days, solvent group start day = 100% inhibition, finish day = 0%", "description": "3×10^6 cells of NCI-H2228 suspended in 50% BD Matrigel™ (BD Biosciences) in PBS were inoculated subcutaneously by injection to the back of 5 weeks old male NOD/SCID mice (Japan Charles River Inc.). […] Administrations were performed once a day for 14 days, and body weight and tumor size were measured every three or four day. Tumor volume was calculated using the following formula. [Tumor volume (mm^3)]=[Tumor major axis (mm)]×[tumor minor axis (mm)]^2×0.5"}, "[4]": {"conditions": "Mus musculus, NIH3T3, read-out: Inhibitory activity on v3 expressing 3T3 cells"}, "[5]": {"conditions": "Homo sapiens, NCI-H2228, read-out: Inhibitory activity on NCI-H2228 cells"}}}
{"smiles": "COc1cc2ncnc(Nc3ccc(O)c(Br)c3)c2cc1OC", "note": "[A, 4-[(3′-Bromo-4′-hydroxyphenyl)amino]-6,7-dimethoxyquinazoline]", "values": [{"measurement": "Inhibition on autophosphorylation (v3 expressing 3T3 cells)", "setting": "[1]; final concentration 10 μM", "result": 94, "unit": "%"}, {"measurement": "Inhibitory activity on v3 expressing 3T3 cells", "setting": "v3 expressing 3T3 cells; final concentration 10 μM, 3 days, cell number at Day 0 = 100% inhibition, Day 3 = 0%", "result": 172, "unit": "%"}, {"measurement": "Inhibitory activity on NCI-H2228 cells", "setting": "NCI-H2228 cells; final concentration 10 μM, 5 days, cell number at Day 0 = 100% inhibition, Day 5 = 0%", "result": 164, "unit": "%"}, {"measurement": "Inhibition of the activity of NPM-ALK", "setting": "NPM-ALK", "result": "inhibit the activity of NPM-ALK"}, {"measurement": "Inhibition on autophosphorylation", "setting": "[2]; final concentration 10 μM", "result": 100, "unit": "%"}, {"measurement": "Inhibition on peptide substrate", "setting": "[3]; final concentration 10 μM", "result": 98, "unit": "%"}]}
{"smiles": "O=C(COc1ccc(OC(F)(F)F)cc1)NCc1nc(C(=O)NCCc2cccc(Cl)c2)cs1", "note": "[B, N-[2-(3-chlorophenyl)ethyl]-2-[({[4-(trifluoromethoxy)phenoxy]acetyl}amino)methyl]-1,3-thiazole-4-carboxamide]", "values": [{"measurement": "inhibition at 10 µM", "setting": "[1]; NIH3T3, final concentration 10 μM", "result": 76, "unit": "%"}, {"measurement": "inhibition at 10 µM", "setting": "v3 expressing 3T3 cells; [4]", "result": 53, "unit": "%"}, {"measurement": "inhibition at 10 µM", "setting": "NCI-H2228 cells; [5]", "result": 102, "unit": "%"}, {"measurement": "inhibition at 10 µM", "setting": "[2]; final concentration 10 μM", "result": 100, "unit": "%"}, {"measurement": "inhibition at 10 µM", "setting": "[3]; final concentration 10 μM", "result": 77, "unit": "%"}]}
{"smiles": "COc1cc(N2CCC(N3CCN(C)CC3)CC2)ccc1Nc1ncc(Cl)c(Nc2ccccc2S(=O)(=O)C(C)C)n1", "note": "[Compound C, 5-chloro-N^4-[2-(isopropylsulfonyl)phenyl]-N^2-{2-methoxy-4-[4-(4-methylpiperazin-1-yl)piperidin-1-yl]phenyl}pyrimidine-2,4-diamine]", "values": [{"measurement": "inhibition at 0.03 µM", "setting": "v3 expressing 3T3 cells; [4]", "result": 182, "unit": "%"}, {"measurement": "inhibition at 0.03 µM", "setting": "NCI-H2228 cells; [5]", "result": 137, "unit": "%"}, {"measurement": "Inhibition rate of tumor growth (tumor volume) of NCI-H2228", "setting": "NCI-H2228", "result": 132, "unit": "%"}]}
{"smiles": "CNS(=O)(=O)c1ccccc1Nc1nc(Nc2ccc(N3CCN(C)CC3)cc2OC)ncc1Br", "note": "[D, 2-[(5-bromo-2-{[2-methoxy-4-(4-methylpiperazin-1-yl)phenyl]amino}pyrimidin-4-yl)amino]-N-methylbenzenesulfonamide]", "values": [{"measurement": "inhibition at 0.01 µM", "setting": "[1]; NIH3T3, final concentration 10 nM", "result": 106, "unit": "%"}, {"measurement": "inhibition at 0.03 µM", "setting": "v3 expressing 3T3 cells; [4]", "result": 206, "unit": "%"}, {"measurement": "inhibition at 0.03 µM", "setting": "NCI-H2228 cells; [5]", "result": 141, "unit": "%"}, {"measurement": "inhibition at 0.01 µM", "setting": "[2]; final concentration 10 nM", "result": 107, "unit": "%"}, {"measurement": "inhibition at 0.01 µM", "setting": "[3]; final concentration 10 nM", "result": 98, "unit": "%"}]}
{"smiles": "COc1cc2ncnc(Nc3ccc(O)cc3)c2cc1OC", "note": "[WHI-P131, 4-(4′-Hydroxyphenyl)amino-6,7-dimethoxyquinazoline]", "values": [{"measurement": "Inhibition of the activity of NPM-ALK", "setting": "NPM-ALK", "result": "inhibit the activity of NPM-ALK"}]}
